ChEMBL document CHEMBL4715869, “N-(Pyrimidin-2-yl)-1,2,3,4-tetrahydroisoquinolin-6-amine Derivatives as Selective Janus Kinase 2 Inhibitors for the Treatment of Myeloproliferative Neoplasms” (J Med Chem, 2020)
Calls of active or inactive are those of the source. The calls are words filed in the database; no cut-off is given here.

How the values were obtained:
SET-2 [1] = assay: Induction of cell cycle arrest in human SET2 cells assessed as accumulation at G0/G1 phase incubated for 24 hrs by propidium iodide staining based flow cytometry; assay type: functional; settings: dose 10-160 nM
[2] = target: T1, Signal transducer and transcription activator 6 (Mus musculus) (UniProt P52633); assay: Inhibition of STAT6 phosphorylation in mouse BAF3 cells at 1000 nM after 2 hrs by Western blot analysis; assay type: cell-based
T1 sequence (whole entry): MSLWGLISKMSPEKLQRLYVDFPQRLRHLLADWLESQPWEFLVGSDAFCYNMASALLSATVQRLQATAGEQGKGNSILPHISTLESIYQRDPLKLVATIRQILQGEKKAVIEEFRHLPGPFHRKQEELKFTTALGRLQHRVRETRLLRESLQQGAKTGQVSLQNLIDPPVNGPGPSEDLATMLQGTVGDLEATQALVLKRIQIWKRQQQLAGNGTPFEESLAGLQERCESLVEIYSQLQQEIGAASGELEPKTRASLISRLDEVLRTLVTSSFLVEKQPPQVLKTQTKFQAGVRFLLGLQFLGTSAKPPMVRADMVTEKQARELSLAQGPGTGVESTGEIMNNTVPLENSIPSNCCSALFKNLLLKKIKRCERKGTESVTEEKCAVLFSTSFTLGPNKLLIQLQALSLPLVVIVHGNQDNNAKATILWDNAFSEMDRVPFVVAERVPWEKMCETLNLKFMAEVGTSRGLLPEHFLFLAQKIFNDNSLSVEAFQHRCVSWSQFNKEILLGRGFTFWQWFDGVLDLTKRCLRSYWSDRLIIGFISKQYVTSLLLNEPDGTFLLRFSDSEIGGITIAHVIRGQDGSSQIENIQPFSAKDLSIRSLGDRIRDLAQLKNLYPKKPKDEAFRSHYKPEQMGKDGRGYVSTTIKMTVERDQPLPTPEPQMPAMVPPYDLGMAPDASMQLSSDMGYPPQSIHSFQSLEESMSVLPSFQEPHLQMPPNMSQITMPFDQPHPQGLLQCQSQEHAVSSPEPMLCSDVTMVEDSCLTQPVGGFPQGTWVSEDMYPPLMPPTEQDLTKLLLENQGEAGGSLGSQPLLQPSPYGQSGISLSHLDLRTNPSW

SET-2 [3] = assay: Induction of apoptosis in human SET-2 cells assessed as live cells at 1.6 uM incubated for 24 hrs by Annexin V/PI staining based flow cytometric analysis (reference value: 96.23 %); assay type: functional
SET-2 [4] = assay: Induction of apoptosis in human SET-2 cells assessed as late apoptotic cells at 0.2 uM incubated for 24 hrs by Annexin V/PI staining based flow cytometric analysis (reference value: 1.52%); assay type: functional
[5] = Tmax in male Sprague-Dawley rat at 5 mg/kg, iv administered […] measured upto 24 hrs by LC/MS/MS analysis; assay type: ADME, organism-based; settings: in vivo
[6] = AUC (0 to t) in Sprague-Dawley rat at 5 mg/kg, iv administered […] measured upto 24 hrs by LC/MS/MS analysis; assay type: ADME, organism-based; parameters: route intravenous, dose 5 mg/kg, time <=24; settings: in vivo
SET-2 [7] = assay: Induction of apoptosis in human SET-2 cells assessed as necrotic cells at 0.4 uM incubated for 24 hrs by Annexin V/PI staining based flow cytometric analysis (reference value: 0.78%); assay type: functional
[8] = Toxicity in NOD/SCID mouse xenografted with human SET2 cells assessed as animal death at 15 to 60 mg/kg, po qd administered for 16 days and measured after 36 days; assay type: organism-based; settings: in vivo, 864 h, dose 15-60 mg/kg, time 36 day
[9] = Oral bioavailability in Sprague-Dawley rat at 5 mg/kg administered via gavage measured upto 24 hrs by LC/MS/MS analysis; assay type: ADME, organism-based; settings: in vivo
[10] = Selectivity index, ratio of IC50 for inhibition of recombinant human JAK3 (781 to end residues) to IC50 for inhibition of recombinant human JAK2 (808 to end residues)
SET-2 [11] = assay: Induction of apoptosis in human SET-2 cells assessed as early apoptotic cells at 0.8 uM incubated for 24 hrs by Annexin V/PI staining based flow cytometric analysis (reference value: 1.47 %); assay type: functional
[12] = target: T2, Tyrosine-protein kinase JAK3 (Homo sapiens, UniProt P52333); assay: Inhibition of recombinant human JAK3 (781 to end residues) using GGEEEEYFELVKKKK as substrate measured after 40 mins in presence of [gamm33P]ATP by scintillation counting method
T2 sequence (P52333 whole entry): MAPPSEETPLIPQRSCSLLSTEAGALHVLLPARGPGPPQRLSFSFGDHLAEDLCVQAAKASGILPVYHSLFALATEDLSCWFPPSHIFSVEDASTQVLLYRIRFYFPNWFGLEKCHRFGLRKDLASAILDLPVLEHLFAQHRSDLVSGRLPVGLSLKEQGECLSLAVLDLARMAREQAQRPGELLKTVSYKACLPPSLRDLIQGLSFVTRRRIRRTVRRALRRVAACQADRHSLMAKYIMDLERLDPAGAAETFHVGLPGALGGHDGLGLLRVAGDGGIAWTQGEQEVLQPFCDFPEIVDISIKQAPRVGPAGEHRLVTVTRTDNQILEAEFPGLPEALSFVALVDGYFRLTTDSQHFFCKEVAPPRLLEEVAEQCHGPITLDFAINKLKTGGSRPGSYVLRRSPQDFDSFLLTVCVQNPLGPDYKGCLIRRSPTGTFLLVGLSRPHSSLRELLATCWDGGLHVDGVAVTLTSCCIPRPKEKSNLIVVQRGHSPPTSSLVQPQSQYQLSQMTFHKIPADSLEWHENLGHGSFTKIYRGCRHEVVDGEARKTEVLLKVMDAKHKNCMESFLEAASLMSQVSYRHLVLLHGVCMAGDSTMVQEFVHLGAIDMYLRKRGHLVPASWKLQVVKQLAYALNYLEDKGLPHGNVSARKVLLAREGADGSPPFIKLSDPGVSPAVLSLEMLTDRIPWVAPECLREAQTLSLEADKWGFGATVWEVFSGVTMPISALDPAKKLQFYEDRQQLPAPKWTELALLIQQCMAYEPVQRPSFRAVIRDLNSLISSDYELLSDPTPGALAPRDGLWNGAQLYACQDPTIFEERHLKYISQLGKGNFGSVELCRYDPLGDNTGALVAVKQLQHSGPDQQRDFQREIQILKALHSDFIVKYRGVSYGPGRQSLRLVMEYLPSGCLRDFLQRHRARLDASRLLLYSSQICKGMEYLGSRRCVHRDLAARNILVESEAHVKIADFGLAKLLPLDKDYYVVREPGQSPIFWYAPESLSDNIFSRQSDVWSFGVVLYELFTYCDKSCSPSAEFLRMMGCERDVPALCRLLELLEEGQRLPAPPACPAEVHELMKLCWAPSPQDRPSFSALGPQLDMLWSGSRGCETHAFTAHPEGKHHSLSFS

SET-2 [13] = assay: Induction of apoptosis in human SET-2 cells assessed as late apoptotic cells at 0.4 uM incubated for 24 hrs by Annexin V/PI staining based flow cytometric analysis (reference value: 1.52%); assay type: functional
[14] = Intrinsic clearance in rat liver microsomes; assay type: ADME, Microsome; settings: read-out: CLH (converted)

## Cc1cnc(Nc2ccc3c(c2)CCN(C(=O)/C=C/CN(C)C)C3)nc1-c1cnn(C(C)C)c1
SET-2 [1]
  Activity: Dose-dependent effect
[2]
  inhibition: inactive
SET-2 [3]
  Activity: 23.03%
SET-2 [4]
  Activity: 5.66%
[5]
  Tmax: 4.8 min
[6]
  AUC(0-t) at 24 h: 988 ng·h/mL
SET-2 [7]
  Activity: 0.48%
[8]
  Activity: Toxic
[9]
  bioavailability: 25.7%
[10]
  Ratio IC50: 31
SET-2 [11]
  Activity: 9.12%
[12]
  IC50: 94 nM
SET-2 [13]
  Activity: 8.68%
[14]
  CLint scaled: 423 mL/min/kg
